Assays:
[1] = refractive index (Na D-line) (dimensionless); settings: 101.33 kPa, Liquid, Standard Abbe refractometry
[2] = 101.33 kPa, Liquid
[3] = xn = mol fraction of the nth substance listed; settings: 308.15 K, 101 kPa, Liquid
[4] = refractive index (Na D-line) (dimensionless); xn = mol fraction of the nth substance listed; settings: 308.15 K, 101 kPa, Liquid, Standard Abbe refractometry
[5] = excess molar enthalpy (molar enthalpy of mixing); xn = mol fraction of the nth substance listed; settings: 308.15 K, 101 kPa, Liquid, Flow calorimetry

COc1ccccc1 [anisole]
Settings | mass density, [2] [kg/m3] | refractive index, [1]
298.15 K | 989.3 | 1.5153
308.15 K | 979.71 | 1.5095

OCc1ccccc1 [benzenemethanol] + COc1ccccc1
Settings | excess molar enthalpy [kcal/mol] | mass density [kg/m3] | refractive index
[3], x2 = 0.0519 | – | 1030.85 | –
[3], x2 = 0.0898 | – | 1028.81 | –
[3], x2 = 0.1854 | – | 1023.62 | –
[3], x2 = 0.2883 | – | 1018 | –
[3], x2 = 0.3766 | – | 1013.19 | –
[3], x2 = 0.4911 | – | 1006.94 | –
[3], x2 = 0.5916 | – | 1001.47 | –
[3], x2 = 0.6747 | – | 996.96 | –
[3], x2 = 0.7745 | – | 991.59 | –
[3], x2 = 0.9039 | – | 984.73 | –
[3], x2 = 0.9448 | – | 982.58 | –
[3], x2 = 0.9723 | – | 981.14 | –
[4], x2 = 0.0519 | – | – | 1.5335
[4], x2 = 0.0898 | – | – | 1.5324
[4], x2 = 0.1854 | – | – | 1.5298
[4], x2 = 0.2883 | – | – | 1.527
[4], x2 = 0.3766 | – | – | 1.5247
[4], x2 = 0.4911 | – | – | 1.5218
[4], x2 = 0.5916 | – | – | 1.5193
[4], x2 = 0.6747 | – | – | 1.5173
[4], x2 = 0.7745 | – | – | 1.5149
[4], x2 = 0.9039 | – | – | 1.5118
[4], x2 = 0.9448 | – | – | 1.5108
[4], x2 = 0.9723 | – | – | 1.5102
[5], x2 = 0.038 | 0.022 | – | –
[5], x2 = 0.0732 | 0.0461 | – | –
[5], x2 = 0.1059 | 0.0655 | – | –
[5], x2 = 0.1364 | 0.0877 | – | –
[5], x2 = 0.1916 | 0.121 | – | –
[5], x2 = 0.2401 | 0.148 | – | –
[5], x2 = 0.3216 | 0.182 | – | –
[5], x2 = 0.3871 | 0.203 | – | –
[5], x2 = 0.4866 | 0.232 | – | –
[5], x2 = 0.5872 | 0.249 | – | –
[5], x2 = 0.6547 | 0.254 | – | –
[5], x2 = 0.7398 | 0.252 | – | –
[5], x2 = 0.7913 | 0.24 | – | –
[5], x2 = 0.8505 | 0.211 | – | –
[5], x2 = 0.8835 | 0.185 | – | –
[5], x2 = 0.9191 | 0.146 | – | –
[5], x2 = 0.9578 | 0.0877 | – | –

OCc1ccccc1 [benzenemethanol]
Settings | mass density, [2] [kg/m3] | refractive index, [1]
298.15 K | 1041.65 | 1.5377
308.15 K | 1033.64 | 1.535

OCCCc1ccccc1 [3-phenyl-1-propanol]
Settings | mass density, [2] [kg/m3] | refractive index, [1]
298.15 K | – | 1.5259
308.15 K | 991.01 | 1.5214

OCCCc1ccccc1 [3-phenyl-1-propanol] + COc1ccccc1
Settings | excess molar enthalpy [kcal/mol] | mass density [kg/m3] | refractive index
[3], x2 = 0.0579 | – | 990.46 | –
[3], x2 = 0.1201 | – | 989.91 | –
[3], x2 = 0.2636 | – | 988.55 | –
[3], x2 = 0.384 | – | 987.28 | –
[3], x2 = 0.4475 | – | 986.57 | –
[3], x2 = 0.5551 | – | 985.27 | –
[3], x2 = 0.6495 | – | 984.07 | –
[3], x2 = 0.7477 | – | 982.78 | –
[3], x2 = 0.8274 | – | 981.73 | –
[3], x2 = 0.8652 | – | 981.26 | –
[3], x2 = 0.913 | – | 980.67 | –
[3], x2 = 0.9588 | – | 980.14 | –
[4], x2 = 0.0579 | – | – | 1.5208
[4], x2 = 0.1201 | – | – | 1.5201
[4], x2 = 0.2636 | – | – | 1.5186
[4], x2 = 0.384 | – | – | 1.5173
[4], x2 = 0.4475 | – | – | 1.5166
[4], x2 = 0.5551 | – | – | 1.5154
[4], x2 = 0.6495 | – | – | 1.5142
[4], x2 = 0.7477 | – | – | 1.5129
[4], x2 = 0.8274 | – | – | 1.5118
[4], x2 = 0.8652 | – | – | 1.5113
[4], x2 = 0.913 | – | – | 1.5108
[4], x2 = 0.9588 | – | – | 1.5101
[5], x2 = 0.0493 | 0.0303 | – | –
[5], x2 = 0.094 | 0.059 | – | –
[5], x2 = 0.1347 | 0.0863 | – | –
[5], x2 = 0.1719 | 0.107 | – | –
[5], x2 = 0.2374 | 0.145 | – | –
[5], x2 = 0.2934 | 0.171 | – | –
[5], x2 = 0.3838 | 0.205 | – | –
[5], x2 = 0.4536 | 0.224 | – | –
[5], x2 = 0.5547 | 0.246 | – | –
[5], x2 = 0.6514 | 0.261 | – | –
[5], x2 = 0.7136 | 0.265 | – | –
[5], x2 = 0.7889 | 0.258 | – | –
[5], x2 = 0.8328 | 0.239 | – | –
[5], x2 = 0.877 | 0.207 | – | –
[5], x2 = 0.9088 | 0.175 | – | –
[5], x2 = 0.9373 | 0.133 | – | –
[5], x2 = 0.9676 | 0.0777 | – | –

OCCc1ccccc1 [2-phenylethanol] + COc1ccccc1
Settings | excess molar enthalpy [kcal/mol] | mass density [kg/m3] | refractive index
[3], x2 = 0.0521 | – | 1007.44 | –
[3], x2 = 0.1223 | – | 1005.63 | –
[3], x2 = 0.2121 | – | 1003.26 | –
[3], x2 = 0.3153 | – | 1000.43 | –
[3], x2 = 0.4172 | – | 997.53 | –
[3], x2 = 0.5245 | – | 994.36 | –
[3], x2 = 0.617 | – | 991.55 | –
[3], x2 = 0.7479 | – | 987.5 | –
[3], x2 = 0.7673 | – | 986.9 | –
[3], x2 = 0.811 | – | 985.5 | –
[3], x2 = 0.9073 | – | 982.55 | –
[3], x2 = 0.9513 | – | 981.2 | –
[4], x2 = 0.0521 | – | – | 1.526
[4], x2 = 0.1223 | – | – | 1.5248
[4], x2 = 0.2121 | – | – | 1.5233
[4], x2 = 0.3153 | – | – | 1.5217
[4], x2 = 0.4172 | – | – | 1.52
[4], x2 = 0.5245 | – | – | 1.5182
[4], x2 = 0.617 | – | – | 1.5165
[4], x2 = 0.7479 | – | – | 1.514
[4], x2 = 0.7673 | – | – | 1.5136
[4], x2 = 0.811 | – | – | 1.5127
[4], x2 = 0.9073 | – | – | 1.5106
[4], x2 = 0.9513 | – | – | 1.5096
[5], x2 = 0.0437 | 0.0227 | – | –
[5], x2 = 0.0838 | 0.0478 | – | –
[5], x2 = 0.1206 | 0.0728 | – | –
[5], x2 = 0.1546 | 0.0948 | – | –
[5], x2 = 0.2153 | 0.134 | – | –
[5], x2 = 0.2678 | 0.164 | – | –
[5], x2 = 0.3543 | 0.207 | – | –
[5], x2 = 0.4224 | 0.228 | – | –
[5], x2 = 0.5232 | 0.25 | – | –
[5], x2 = 0.6221 | 0.269 | – | –
[5], x2 = 0.687 | 0.273 | – | –
[5], x2 = 0.767 | 0.267 | – | –
[5], x2 = 0.8145 | 0.251 | – | –
[5], x2 = 0.8682 | 0.217 | – | –
[5], x2 = 0.9006 | 0.185 | – | –
[5], x2 = 0.9294 | 0.147 | – | –
[5], x2 = 0.9634 | 0.0864 | – | –

From the NIST ThermoML archive (doi:10.1021/je050085p)
